{"source": "paper PMC5514153", "about": "“Targeting PTPRZ inhibits stem cell-like properties and tumorigenicity in glioblastoma cells” (Scientific Reports, 2017)", "key": {"PTPRZ1 M1902F, M1902H": {"test_system": "PTPRZ1 M1902F, M1902H", "experiment": "Inhibitor sensitivity of point mutants PTPRZ1 M1902F and M1902H", "type": "biochemical, human", "settings": "10 µM, vs wild-type PTPRZ1", "excerpt": "(§1) Figure 5 Structural basis for PTPRZ inhibition of NAZ2329. (A) An enlarged view of the X-ray structure of human PTPRZ1-D1 complexed with NAZ2329 (PDB ID: 5H08) (left), X-ray structure of the apo (open) form of PTPRZ1-D1 (PDB ID: 5AWX, ref. [6], middle) and a computer-modeled structure of the closed form of PTPRZ1-D1 complexed with a competitive inhibitor, SCB4380 (ref. [6], right), are shown. PTPRZ1-D1 is shown as a gray surface representation, in which Cys1933 at the active site and Val-1911 at the bottom of the allosteric pocket are indicated in red and yellow, respectively. Inhibitors are colored according to the atomic species in a stick figure representation as follows: oxygen (red), nitrogen (blue), sulfur (yellow), and carbon (green). The bottom figures show the conformation of the WPD loop (orange) as cartoon representations, in which Asp1901 and Cys1933 are indicated by orange and red spheres, respectively. Side chains of Arg1939 at the active site, Met1902 in the WPD loop, and Val-1911 at the bottom of the allosteric binding area are also shown in the stick representation. (B) LigPlot representation of the NAZ2329 interaction with PTPRZ1-D1. The predicted hydrogen bonds (broken black lines) and residues (red spoked arcs) involved in the hydrophobic interaction are shown. […]"}, "PTPN1 F191V": {"test_system": "PTPN1 F191V", "experiment": "Inhibitor sensitivity of point mutant PTPN1 F191V", "type": "biochemical, human", "settings": "at 10 µM", "excerpt": "as §1"}, "C6 xenograft": {"test_system": "C6 xenograft", "experiment": "C6 subcutaneous xenograft nude mouse model", "type": "in vivo", "settings": "nude mice, i.p. twice per week; NAZ2329 45 µmol (22.5 mg)/kg, TMZ 50 mg/kg; vehicle 17 days", "experimental": "Figure 10 Antitumor effects of NAZ2329 on the C6 mouse xenograft model. (A) Nude mice were subcutaneously implanted with C6 cells (5 × 10^6 cells), and tumor size was monitored until the criteria were met (>150 mm^3). At this time, mice were randomly divided into 4 treatment groups. DMSO as the vehicle control (n = 7), NAZ2329 (45 µmol (22.5 mg)/kg body weight, n = 9), temozolomide (TMZ, 50 mg/kg, n = 9), and the combination of NAZ2329 (45 µmol/kg) with TMZ (50 mg/kg) (n = 9) were administered intraperitoneally twice per week until the humane endpoint (>3,000 mm^3 tumor size or 40 days after the treatment). Tumor growth in each animal and the number of days required to reach a tumor volume of 3,000 mm^3 are shown in the graph. Five mice were sacrificed due to tumor necrosis (shown by gray symbols in the graph), and two mice unexpectedly died suddenly during the observation period (black symbols in the graph).\nParental or Ptprz-knockdown C6 cells (5 × 10^6 cells) suspended in a volume of 100 µl were subcutaneously injected into the left hind limbs of BALB/c-nu/nu mice (females, 4 weeks old mice were purchased from Japanese Charles River Co. Ltd.). Tumor growth was measured with calipers and calculated by the formula: volume = length × width × width × 0.5, as previously described. The drug treatment initiated when the tumor size reached 150 mm^3. […]"}, "human U251 cells": {"test_system": "human U251 cells", "experiment": "Cellular effects in U251 cells", "type": "cell-based", "settings": "proliferation, migration, SOX2 (Supplementary Fig. S4)", "experimental": "This assay was performed as described previously. Briefly, cells were preincubated with compounds for 30 min, and then transferred onto a laminin-coated transwell insert in which the lower chambers contained epidermal growth factor (EGF, #E9644, Sigma-Aldrich). Cells were allowed to migrate for 3 h, and the number of cells that migrated to the lower surface was counted under a conventional fluorescence microscope.\nCells (3 × 10^4 cells) were inoculated into a 24-well plastic tissue culture plate with 500 µl of DMEM supplemented with 2% FBS and the indicated compounds for 48 h. Cells were harvested by trypsinization and then manually counted with a hemacytometer.\nCells were inoculated at 5 × 10^3 cells per 96-well uncoated polystyrene plate (# 9018, Corning) or 5 × 10^4 cells per 35-mm plastic petri dish (#351008, Corning), and cultured in a serum-free medium containing DMEM/F12 with 1x B27 supplement (#17504044, Thermo Fisher Scientific), EGF (20 ng/ml), and basic fibroblast growth factor (bFGF, 20 ng/ml, #064-05381, Wako pure chemical). After a 7-day culture, cells were fixed with 10% neutral formalin and pictured under a conventional microscope. The number of spheroids of approximately 70 µm in diameter were counted manually using Adobe Photoshop CS6 (Adobe)."}}}
{"molecule": "CCOc1ccc(C(F)(F)F)cc1CSc1ccsc1C(=O)NS(=O)(=O)c1ccccc1", "note": "[NAZ2329]", "values": [{"measurement": "effect of M1902F / M1902H substitution on sensitivity to inhibitor", "setting": "PTPRZ1 M1902F, M1902H", "value": "did not affect the sensitivity to the inhibitor"}, {"measurement": "change in sensitivity of F191V mutant vs wild-type PTPN1 (more sensitive)", "setting": "PTPN1 F191V", "value": "~ 2 fold"}, {"measurement": "median day for the tumor size to reach 3,000 mm^3", "setting": "C6 xenograft", "value": 25, "unit": "days"}, {"measurement": "cellular effects in U251 cells compared with C6 cells", "setting": "human U251 cells", "value": "exerted similar effects"}]}
